Earlier results, collected in patent US20120093738A1, “TASTE-MASKED ORAL FORMULATIONS OF INFLUENZA ANTIVIRALS” (Rubicon Research Private Limited, priority 2009, published 2012).

Conditions: reconstituted multi-dose suspensions

Compound: CCOC(=O)C1=C[C@@H](OC(CC)CC)[C@H](NC(C)=O)[C@@H](N)C1 [oseltamivir phosphate]
- time within which the suspension needs to be used: ≤ 10 days
